{"source": "patent US20120046224A1", "about": "“TREATMENT OF DIABETES AND METABOLIC SYNDROME” (NORDIC BIOSCIENCE A/S, priority 2009, published 2012)", "key": {"[1]": {"conditions": "cited from earlier work; for fasting plasma glucose: rats and mice, intravenous bolus injection"}, "rat hepatocytes": {"test_system": "rat hepatocytes", "conditions": "cited from earlier work"}, "[2]": {"assay": "Body weight and whole body composition (MR scanning) in DIO rats", "assay_type": "in vivo, rat", "conditions": "for change in body weight: once daily oral, Calcitonin 2 mg/kg/day with 5-CNAC 150 mg/kg/day, or 5-CNAC 150 mg/kg/day alone; for increase in fat content (MR analysis): CT 2 mg/kg/day with 5-CNAC", "description": "(§1) A total of 48 selectively bred male DIO rats were used. At the beginning of the experiment, the animals had reached an age of 35 weeks, out of which 31 weeks were on high-fat diet.\n(§2) At day −7, 21 and 42 fasted serum and urine samples were collected and whole body tissue composition was evaluated by MR scanning. At day 42, an oral glucose tolerance test (OGTT) was performed to evaluate glucose homeostasis in the rats. At day −1 the animals were stratified according to weight and whole body fat mass (assessed by a 4-in-1 EchoMRI scanner) to the different treatment groups. The groups were randomized in three teams by body weight.\nFirst day of dosing was day 0. Animals were dosed per oral 5 ml/kg. The compound solution was administered once daily at 7:00 AM-2:00 PM during the whole study (0-42 days) per oral gavage using a gastric tube connected to a 5 ml syringe (luer lock™. Becton).\nTo assess the distribution of the gained weight during the treatment program the animals were subjected to MR analysis after termination. Two parameters were investigated: 1) change in fatty mass and, 2) change in total water content."}, "DIO rats": {"test_system": "DIO rats", "assay": "Oral glucose tolerance test (OGTT) in DIO rats", "assay_type": "in vivo, rat", "conditions": "for plasma insulin response during OGTT: peak 15 minutes after glucose, CT compared to 5-CNAC group; for maximum / peak blood glucose level during OGTT: reached 15 minutes after OGTT (CT), at 60 minutes (5-CNAC)", "description": "as §1, §2\nFirst day of dosing was day 0. Animals were dosed per oral 5 ml/kg.\nIn order to test the glucose handling in different treatment groups, an oral glucose tolerance test (OGTT) was performed."}, "[3]": {"conditions": "healthy test persons, infusion; cited from earlier work"}, "[4]": {"conditions": "Paget's disease of the bone patients, injection; cited from earlier work"}, "[5]": {"conditions": "rats or mice, cited from earlier work"}, "[6]": {"conditions": "insulin dependent diabetic patients, intravenous infusion; cited from earlier work"}, "[7]": {"conditions": "100 MRC units per day, 2 months, cited from earlier work"}, "[8]": {"assay": "Ovariectomy (OVX)-induced weight gain in Sprague-Dawley rats", "assay_type": "in vivo, rat", "description": "(§3) A total of 40 rats were divided into 4 groups, two bilateral ovariectomy (OVX) groups and two normal groups.\n(§4) The first day of dosing was day 0. Animals were dosed per oral 5 ml/kg. The compound solution was administered twice daily, the first dose at 7:00 AM and the second dose 8 hours later (between 3 and 4 PM) during the whole study. The dosing was done by oral gavage using a gastric tube connected to a 5 ml syringe. Feeding was ad libitum.\nA total of 20 rats were bilaterally ovariectomized (OVX). The animals were treated once daily with either 5-CNAC 150 mg/kg/day alone or that amount of 5-CNAC in combination with Calcitonin 2 mg/kg/day for 8 weeks during which the weight was monitored once a week. Feeding was again ad libitum.\nThe first day of dosing was day 0. Animals were dosed per oral 5 ml/kg. The compound solution was administered once daily between 7:00 and 8:00 AM during the whole study per oral gavage using a gastric tube connected to a 5 ml syringe."}, "[9]": {"conditions": "62.26 pmol/kg, patients with a duodenal ulcer; cited from earlier work"}, "[10]": {"conditions": "i.m. 100 MRC units twice daily, 15 days; cited from earlier work"}, "Sprague Dawley rats": {"test_system": "Sprague Dawley rats", "assay": "OGTT in healthy lean Sprague Dawley rats", "assay_type": "in vivo, rat", "description": "The rats were treated bi daily for 5 weeks using the same dose as in the DIO rats."}, "[11]": {"conditions": "cited from earlier work"}, "CTX-II": {"test_system": "CTX-II", "assay": "Serum CTX-II after oral dosing in fasted rats", "assay_type": "in vivo, rat", "conditions": "sCT 2 mg/kg, carrier 150 mg/kg", "description": "Fasted rats were treated with oral doses of carrier alone (5-CNAC or SNAC), sCT alone or sCT in combination with carrier (5-CNAC or SNAC). Blood sampling was conducted at baseline, one, three and six hours after oral dosing, and serum was isolated. Concentrations of CTX-II were subsequently measured in the serum samples.\nRats were randomized according to weight into five groups and fasted over night. […] Blood samples were taken from tail vein at baseline, one, three and six hours after oral dosing. Serum was isolated from the blood samples and CTX-II concentrations were measured in undiluted serum samples. […] Each group contained 6 animals. Statistical analyses were conducted with one-way ANOVA and Bonferroni's Multiple Comparison Test to adjust for multiple tests. Error bars indicate standard error of mean (SEM). Asterisks indicate: **=p<0.01, ***=p<0.001."}, "[12]": {"assay": "Weight gain in normal Sprague-Dawley rats", "assay_type": "in vivo, rat", "conditions": "twice daily oral, salmon calcitonin 2 mg/kg/day with 5-CNAC 150 mg/kg/day, 8 weeks, vs control group", "description": "as §3, §4"}, "[13]": {"conditions": "intra-muscular, cited from earlier work"}, "[14]": {"conditions": "rats, intracerebroventricular administration; cited from earlier work"}, "[15]": {"conditions": "cited from earlier work; for glucose levels: fasting animals, parenterally administered"}, "[16]": {"conditions": "rhesus monkeys, parenteral, 5 day administration period; cited from earlier work"}, "[17]": {"conditions": "healthy volunteers, intramuscular; cited from earlier work"}, "[18]": {"conditions": "rabbits, injection, 600 MRC U per month or 50 MRC U single dose; cited from earlier work"}, "[19]": {"conditions": "latent diabetes in humans, infusion; cited from earlier work"}, "[20]": {"conditions": "100 U by i.v. infusion; cited from earlier work"}, "[21]": {"conditions": "cited from earlier work", "remark": "listed apart in the source"}, "[22]": {"conditions": "rats fed a high fat diet, delivered by osmotic pump; cited from earlier work"}}, "note": "No end group written: not given here."}
{"molecule": "rat calcitonin (CGNLSTCMLGTYTQDLNKFHTFPQTSIGVGAP; ends and bridges not checked; cysteine pairing not given here)", "values": [{"measurement": "fasting plasma glucose", "setting": "[1]", "value": "a lesser effect"}, {"measurement": "effect on rat hepatocytes and other cells", "setting": "rat hepatocytes", "value": "little effect"}]}
{"molecule": "O=C(O)CCCCCCCNC(=O)c1cc(Cl)ccc1O", "note": "[5-CNAC, N-(5-chlorosalicyloyl)-8-aminocaprylic acid]", "values": [{"measurement": "change in body weight", "setting": "[2]", "value": "Neither the CT treated group nor the 5-CNAC group display any change in their body weight"}, {"measurement": "plasma insulin response during OGTT", "setting": "DIO rats", "value": "the levels stay in the hyperinsulinaemic state throughout the OGTT"}, {"measurement": "maximum / peak blood glucose level during OGTT", "setting": "DIO rats", "value": 9.8, "unit": "mM"}]}
{"molecule": "human calcitonin (CGNLSTCMLGTYTQDFNKFHTFPQTAIGVGAP; ends and bridges not checked; cysteine pairing not given here; listed as Homo sapiens)", "values": [{"measurement": "glucose assimilation and insulin output", "setting": "[3]", "value": "significant impairment of glucose assimilation and insulin output"}, {"measurement": "serum glucose and serum insulin", "setting": "[4]", "value": "a moderate immediate rise in serum glucose and a slight decrease in serum insulin"}]}
{"molecule": "Salmon calcitonin [CT]", "values": [{"measurement": "short term food intake", "setting": "[5]; acute parenteral administration", "value": "potently induced reduction in short term food intake"}, {"measurement": "duration of the effect on food intake", "setting": "[5]; parenteral", "value": 3, "unit": "days"}, {"measurement": "fasting plasma glucose", "setting": "[1]", "value": "elevation of fasting plasma glucose"}, {"measurement": "glucose rise in arginine tolerance test", "setting": "[6]", "value": "abolished the glucose rise normally seen in an arginine tolerance test"}, {"measurement": "glucose tolerance", "setting": "[7]; Paget's disease or osteoporosis patients", "value": "Glucose tolerance did not deteriorate significantly"}, {"measurement": "basal plasma glucose", "setting": "[7]", "value": "significant increase in basal plasma glucose"}, {"measurement": "OVX-induced weight gain", "setting": "[8]; once daily oral, 8 weeks", "value": "does not protect against OVX-induced weight gain"}, {"measurement": "OVX-induced increase in bodyweight", "setting": "[8]; twice daily oral, 7 weeks", "value": "protected partially against the OVX-induced increase in bodyweight"}, {"measurement": "post-prandial insulin release", "setting": "[9]", "value": "post-prandial insulin release was abolished"}, {"measurement": "carbohydrate metabolism after a mixed meal stimulus", "setting": "[10]", "value": "not seen to cause appreciable change in carbohydrate metabolism"}, {"measurement": "AUC of change in glucose during OGTT", "setting": "Sprague Dawley rats", "value": "potently reduces glucose levels"}, {"measurement": "increase of insulin level in response to OGTT", "setting": "Sprague Dawley rats", "value": "approximately 0.5 μg/L"}, {"measurement": "time until insulin level returned to basal", "setting": "Sprague Dawley rats; OGTT", "value": 60, "unit": "min"}, {"measurement": "AUC of change in insulin levels during OGTT", "setting": "Sprague Dawley rats; between groups, p=0.08", "value": "the AUC of change is significant between the groups"}, {"measurement": "basal glucose levels", "setting": "Sprague Dawley rats; treated bi daily for 5 weeks, same dose as in DIO rats", "value": "lowered basal glucose levels"}, {"measurement": "peak glucose level during OGTT", "setting": "Sprague Dawley rats; vs vehicle (5-CNAC) group", "value": "prevented this drastic peak"}, {"measurement": "glucose level and glucagon", "setting": "[11]; insulin dependent diabetics", "value": "a fall in glucose level along with the fall in glucagon"}, {"measurement": "circulating glucagon and serum insulin", "setting": "[11]; normal human volunteers, infused", "value": "a fall in circulating glucagon levels and a fall in serum insulin"}, {"measurement": "serum CTX-II concentration", "setting": "CTX-II; one hour after oral dosing, vs carrier alone", "value": "significantly lowered the CTX-II concentration"}, {"measurement": "serum CTX-II concentration", "setting": "CTX-II; three and six hours after oral dosing", "value": "return to the baseline level"}, {"measurement": "increase in fat content (MR analysis)", "setting": "[2]; compared to 5-CNAC and vehicle groups", "value": "a significant increase compared to the 5-CNAC and vehicle groups"}, {"measurement": "increase in fat content (MR analysis)", "setting": "[2]; compared to rosiglitazone group, p<0.0001", "value": "significantly lower increase in the fat content compared to rosiglitazone group"}, {"measurement": "change in body weight", "setting": "[2]", "value": "Neither the CT treated group nor the 5-CNAC group display any change in their body weight"}, {"measurement": "effect on rat hepatocytes and other cells", "setting": "rat hepatocytes", "value": "little effect"}, {"measurement": "natural weight gain", "setting": "[12]", "value": "reduction of the natural weight gain"}, {"measurement": "integrated glucose areas under plasma glucose curves", "setting": "[13]; humans", "value": "approximately doubling"}, {"measurement": "response to a glucose tolerance test", "setting": "[13]; normal humans", "value": "a deterioration in response to a glucose tolerance test"}, {"measurement": "AUC of change in insulin levels during OGTT", "setting": "DIO rats", "value": "lowest change in insulin levels"}, {"measurement": "AUC of net change in plasma glucose (glucose clearance during OGTT)", "setting": "DIO rats", "value": "significantly increased glucose clearance during the OGTT"}, {"measurement": "effect on AUC of change in glucose", "setting": "DIO rats; CT compared to Rosiglitazone groups", "value": "markedly larger than the changes seen in the Rosiglitazone groups"}, {"measurement": "peak glucose levels during OGTT", "setting": "DIO rats; CT treated compared to 5CNAC group", "value": "strongly reduced peak glucose levels"}, {"measurement": "basal insulin level to which insulin returns after the peak", "setting": "DIO rats; OGTT", "value": 4.53, "unit": "µg/L"}, {"measurement": "plasma insulin response during OGTT", "setting": "DIO rats", "value": "attenuated insulin response"}, {"measurement": "maximum / peak blood glucose level during OGTT", "setting": "DIO rats", "value": 8.2, "unit": "mM"}, {"measurement": "serum glucose and serum insulin", "setting": "[4]", "value": "a moderate immediate rise in serum glucose and a slight decrease in serum insulin"}, {"measurement": "glucose stimulated release of insulin", "setting": "[14]", "value": "increased glucose stimulated release of insulin"}, {"measurement": "glucose levels", "setting": "[15]", "value": "a rise in glucose levels"}, {"measurement": "food intake", "setting": "[16]", "value": "reduce food intake in rhesus monkeys throughout a 5 day administration period"}, {"measurement": "blood glucose during a morning fast and glucose tolerance test", "setting": "[17]", "value": "inhibited decrease of blood glucose during a morning fast and impaired a glucose tolerance test"}, {"measurement": "glucose level measured after fasting", "setting": "[18]", "value": "marked decrease in glucose level"}, {"measurement": "serum level of insulin and blood sugar", "setting": "[19]", "value": "reducing the serum level of insulin and increasing the blood sugar"}]}
{"molecule": "calcitonin", "values": [{"measurement": "glycemic recovery", "setting": "[1]; hypoglycaemic rat, compared to glucagon", "value": "a greater glycemic recovery than glucagon"}, {"measurement": "glycaemia in the course of an OGTT", "setting": "[20]", "value": "a persistence of hyperglycaemia"}, {"measurement": "insulin secretion", "setting": "[20]", "value": "An inhibitory action of calcitonin on insulin secretion was also observed"}]}
{"molecule": "amylin (KCNTATCATQRLANFLVHSSNNFGAILSSTNVGSNTY; not fully specified (C-terminus, bridges); cysteine pairing not given here; UniProt P10997 34-70, looked up) [calcitonin family peptide hormone, literature results]", "values": [{"measurement": "plasma glucose", "setting": "[21]; in the absence of a meal", "value": "associated with a rise in plasma glucose in rodents, but not in humans"}, {"measurement": "rise in plasma glucose", "setting": "[21]; in the context of a meal, rats, dogs and humans", "value": "suppressed a rise in plasma glucose"}, {"measurement": "effect on rat hepatocytes and other cells", "setting": "rat hepatocytes", "value": "little effect"}, {"measurement": "weight gain", "setting": "[22]", "value": "caused a reduction in weight gain"}, {"measurement": "glucose levels", "setting": "[15]", "value": "a rise in glucose levels"}, {"measurement": "rise in glucose in oral glucose tolerance test", "setting": "[15]; rats, parenterally administered shortly before the test", "value": "reduced the rise in glucose"}]}
